Reference: PMC9317718 (Molecules, 2022)

Experiments:
CYP1A2 [1] = biological target: T1, CYP1A2 (Homo sapiens, UniProt P05177); test: Degradation in single recombinant CYP1A2; assay type: in vitro ADME; conditions: 5 μM compound, single enzyme CYP1A2; for speed constant k in CYP1A2: t in min; for half-life at 5 μM: human, recombinant CYP1A2, pH 7.4, read-out: t1/2 in CYP1A2
T1 construct: purchased RILD (Research Institute for Liver Diseases Co., Ltd., Shanghai, China)
T1 sequence (P05177 whole entry): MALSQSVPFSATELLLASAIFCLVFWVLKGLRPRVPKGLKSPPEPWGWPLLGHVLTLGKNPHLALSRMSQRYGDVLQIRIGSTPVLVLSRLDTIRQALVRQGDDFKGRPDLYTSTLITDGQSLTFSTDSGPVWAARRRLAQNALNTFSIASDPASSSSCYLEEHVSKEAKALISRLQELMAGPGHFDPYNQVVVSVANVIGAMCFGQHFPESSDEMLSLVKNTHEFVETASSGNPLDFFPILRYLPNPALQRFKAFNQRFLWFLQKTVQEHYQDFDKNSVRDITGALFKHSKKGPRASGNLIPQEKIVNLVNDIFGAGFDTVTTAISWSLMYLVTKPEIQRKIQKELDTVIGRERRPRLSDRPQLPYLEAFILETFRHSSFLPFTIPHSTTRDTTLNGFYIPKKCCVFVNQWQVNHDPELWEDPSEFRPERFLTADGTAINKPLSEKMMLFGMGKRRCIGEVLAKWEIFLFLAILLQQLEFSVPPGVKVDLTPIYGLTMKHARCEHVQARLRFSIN

CYP3A4 [2] = biological target: T2, CYP3A4 (Homo sapiens, UniProt P08684); test: in vitro; conditions: pH 7.4, probe testosterone 0.01 mM
Target sequence in this assay (P08684 2-503): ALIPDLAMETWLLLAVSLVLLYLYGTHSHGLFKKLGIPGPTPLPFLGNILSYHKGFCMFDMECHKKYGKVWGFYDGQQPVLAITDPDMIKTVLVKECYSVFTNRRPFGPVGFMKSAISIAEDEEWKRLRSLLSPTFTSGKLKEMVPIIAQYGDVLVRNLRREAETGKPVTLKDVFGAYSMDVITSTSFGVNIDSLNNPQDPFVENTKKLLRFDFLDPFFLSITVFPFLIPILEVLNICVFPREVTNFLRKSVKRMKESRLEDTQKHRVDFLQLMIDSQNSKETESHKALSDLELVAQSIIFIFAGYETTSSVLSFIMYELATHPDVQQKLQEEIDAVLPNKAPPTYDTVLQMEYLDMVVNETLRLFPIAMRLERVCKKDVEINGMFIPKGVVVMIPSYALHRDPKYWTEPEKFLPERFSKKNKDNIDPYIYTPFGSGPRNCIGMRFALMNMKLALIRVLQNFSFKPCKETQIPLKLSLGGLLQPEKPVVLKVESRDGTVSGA

CYP3A4 [3] = biological target: T2, CYP3A4; test: Degradation in single recombinant CYP3A4; assay type: in vitro ADME; design: purchased RILD (Research Institute for Liver Diseases Co., Ltd., Shanghai, China); conditions: 5 μM compound, single enzyme CYP3A4; for speed constant k in CYP3A4: t in min; for half-life at 5 μM: human, recombinant CYP3A4, pH 7.4, read-out: t1/2 in CYP3A4
Target sequence in this assay (P08684 whole entry): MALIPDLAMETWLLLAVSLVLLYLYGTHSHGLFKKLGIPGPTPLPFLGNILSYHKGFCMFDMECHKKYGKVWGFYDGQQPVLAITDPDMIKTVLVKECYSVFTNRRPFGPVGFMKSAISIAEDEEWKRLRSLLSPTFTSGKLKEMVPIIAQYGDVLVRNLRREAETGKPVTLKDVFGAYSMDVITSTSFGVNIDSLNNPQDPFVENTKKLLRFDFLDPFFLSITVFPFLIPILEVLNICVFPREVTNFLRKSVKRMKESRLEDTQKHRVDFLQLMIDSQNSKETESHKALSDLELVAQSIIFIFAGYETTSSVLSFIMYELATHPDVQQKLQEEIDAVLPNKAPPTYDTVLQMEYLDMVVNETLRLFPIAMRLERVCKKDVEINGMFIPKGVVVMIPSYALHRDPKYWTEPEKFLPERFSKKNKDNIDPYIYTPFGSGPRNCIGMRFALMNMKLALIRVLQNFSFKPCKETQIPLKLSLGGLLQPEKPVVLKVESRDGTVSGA

CYP2C19 [4] = biological target: T3, CYP2C19 (Homo sapiens, UniProt P33261); test: in vitro; conditions: recombinant enzyme, pH 7.4
T3 sequence (P33261 whole entry): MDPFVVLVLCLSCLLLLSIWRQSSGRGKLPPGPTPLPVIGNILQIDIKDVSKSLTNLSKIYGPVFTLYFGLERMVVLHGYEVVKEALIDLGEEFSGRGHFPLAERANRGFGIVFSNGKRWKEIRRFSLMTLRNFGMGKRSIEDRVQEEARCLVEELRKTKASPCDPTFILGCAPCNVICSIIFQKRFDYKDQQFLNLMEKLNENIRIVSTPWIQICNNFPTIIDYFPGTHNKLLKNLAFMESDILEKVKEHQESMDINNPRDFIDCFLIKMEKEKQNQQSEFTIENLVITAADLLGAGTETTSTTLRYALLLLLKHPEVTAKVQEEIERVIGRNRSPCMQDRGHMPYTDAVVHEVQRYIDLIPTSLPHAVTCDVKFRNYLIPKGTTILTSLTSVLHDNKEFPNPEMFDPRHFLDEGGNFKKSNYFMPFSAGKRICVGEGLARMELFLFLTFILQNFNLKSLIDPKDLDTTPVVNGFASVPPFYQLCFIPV

in vitro [5] = conditions: for CLint: microsomes
Excerpt: Km is defined as the characteristic constant of the enzyme, which represent the […] (Vmax). The values of Vmax and Km are based on the nonlinear regression analysis of the Michaelis-Menten equation, V = Vmax × S/(Km + S). The kinetic parameters were adopted through the following parameters: S, Vmax, and V. All of these parameters represented the substrate concentration, the maximum velocity of metabolism, and the velocity of metabolism, respectively. CLint (the different ability of the organism in eliminating the particular chemical substances) is defined as Vmax/Km, which reflected the different ability of the organism in eliminating the particular chemical substances.

CYP2E1 [6] = biological target: T4, CYP2E1 (Homo sapiens, UniProt P05181); test: in vitro; conditions: recombinant enzyme, pH 7.4
T4 sequence (P05181 whole entry): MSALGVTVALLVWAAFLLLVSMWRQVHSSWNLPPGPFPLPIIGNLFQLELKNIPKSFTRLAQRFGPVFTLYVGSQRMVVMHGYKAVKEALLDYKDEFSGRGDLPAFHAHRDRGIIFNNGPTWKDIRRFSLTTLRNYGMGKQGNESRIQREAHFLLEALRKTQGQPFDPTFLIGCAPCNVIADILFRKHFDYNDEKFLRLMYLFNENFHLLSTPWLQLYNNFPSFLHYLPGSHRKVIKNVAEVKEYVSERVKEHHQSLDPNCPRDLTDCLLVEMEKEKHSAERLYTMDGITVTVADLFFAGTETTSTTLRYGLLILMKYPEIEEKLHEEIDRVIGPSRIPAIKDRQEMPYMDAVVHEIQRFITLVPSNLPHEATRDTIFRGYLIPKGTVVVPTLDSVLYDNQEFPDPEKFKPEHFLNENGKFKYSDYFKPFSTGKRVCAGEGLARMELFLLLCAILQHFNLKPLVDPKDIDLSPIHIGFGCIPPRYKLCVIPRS

CYP1A2 [7] = biological target: T5, CYP1A2 (Homo sapiens, UniProt P05177); test: Inhibition of CYP1A2 activity in vitro (probe phenacetin); assay type: in vitro ADME; conditions: compound 0-80 μM; probe phenacetin 0.02 mM
T5 sequence (P05177 2-516): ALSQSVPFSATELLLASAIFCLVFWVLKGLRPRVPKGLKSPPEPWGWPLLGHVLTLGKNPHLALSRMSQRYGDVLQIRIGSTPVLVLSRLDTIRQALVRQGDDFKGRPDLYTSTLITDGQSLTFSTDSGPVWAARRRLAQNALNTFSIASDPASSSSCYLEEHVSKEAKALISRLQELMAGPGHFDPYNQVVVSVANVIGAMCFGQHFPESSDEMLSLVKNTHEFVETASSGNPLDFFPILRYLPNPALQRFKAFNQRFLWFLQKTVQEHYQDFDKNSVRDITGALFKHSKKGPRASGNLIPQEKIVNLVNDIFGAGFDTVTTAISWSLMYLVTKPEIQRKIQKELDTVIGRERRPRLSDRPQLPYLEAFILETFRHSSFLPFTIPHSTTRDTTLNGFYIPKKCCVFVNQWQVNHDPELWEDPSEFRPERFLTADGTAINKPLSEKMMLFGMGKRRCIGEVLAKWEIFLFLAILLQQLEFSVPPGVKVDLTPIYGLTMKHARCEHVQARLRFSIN
Experimental: (§1) The mixed probe substrate consisted of testosterone 0.01 mM for CYP3A4, phenacetin 0.02 mM for CYP1A2, chlorzoxazone 0.02 mM for CYP2E1, and omeprazole 0.01 mM for CYP2C19, respectively. […] Other procedure was accorded to above step of 2.6 “Microsomal incubation conditions”.

in vitro [8] = conditions: male, Sprague-Dawley, rat, microsomes, pH 7.4
CYP2E1 [9] = biological target: T4, CYP2E1; conditions: recombinant enzyme, 5 μM, pH 7.4
CYP2C19 [10] = biological target: T3, CYP2C19; test: biochemical
Experimental: as §1

CYP2E1 [11] = biological target: T4, CYP2E1; test: biochemical
Experimental: as §1

CYP2C19 [12] = biological target: T3, CYP2C19; conditions: recombinant enzyme, 5 μM, pH 7.4
CYP2C19 [13] = conditions: rat liver after 7-days i.g. treatment, low-, medium- and high-dose groups
Experimental: To investigate the molecular mechanisms in the activity of the CYP enzymes, the level of CYP protein in the liver of rats was examined.
In this study, the grouping and administration methods were as described in the step of “Pharmacokinetic study of the probe substrate in vivo”. On the 8th day, the blood was allowed to drain through the aorta and the liver was excised quickly, […]. The liver tissue was stored at −80 °C until analysis.
Then, a piece of the liver tissue was separately homogenized and lysed in RIPA buffer with 1% proteinase inhibitor phenylmethylsulfonyl fluoride (PMSF). […] The protein levels were quantified by a BCA Assay Kit. The samples were boiled at 100 °C for 10 min. Equal amounts of protein lysates were separated on 10% SDS-polyacrylamide gels by electrophoresis and then transferred onto nitrocellulose membranes. The membranes were blocked in 5% non-fat milk. […] In addition, images were captured using an Odyssey Infra-red Imaging System v3.0.16 (LI-COR Biosciences, Lincoln, NE, USA), and quantified by densitometry scanning using ImageJ Analysis software (National Institutes of Health, Bethesda, MD, USA).

CYP1A2 [14] = biological target: T6, CYP1A2 (Rattus norvegicus, UniProt P04799); conditions: in vivo
T6 sequence (P04799 1-513): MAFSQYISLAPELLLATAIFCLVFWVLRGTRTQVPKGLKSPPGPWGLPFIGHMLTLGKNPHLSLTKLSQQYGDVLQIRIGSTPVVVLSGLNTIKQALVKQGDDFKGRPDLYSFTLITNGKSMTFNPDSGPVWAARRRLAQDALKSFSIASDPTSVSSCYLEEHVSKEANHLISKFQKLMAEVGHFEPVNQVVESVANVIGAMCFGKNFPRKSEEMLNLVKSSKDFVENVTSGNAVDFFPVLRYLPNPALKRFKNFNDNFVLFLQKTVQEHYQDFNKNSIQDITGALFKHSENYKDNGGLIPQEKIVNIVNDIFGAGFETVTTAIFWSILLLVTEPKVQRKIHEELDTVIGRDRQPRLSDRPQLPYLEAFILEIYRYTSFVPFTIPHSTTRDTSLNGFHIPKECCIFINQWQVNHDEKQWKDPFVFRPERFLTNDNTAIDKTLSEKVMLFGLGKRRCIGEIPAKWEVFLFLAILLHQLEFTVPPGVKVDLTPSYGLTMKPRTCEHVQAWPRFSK

CYP3A4 [15] = conditions: rat, in vivo
in vitro [16] = conditions: human, microsomes, pH 7.4

SMILES | speed constant k in CYP1A2 (CYP1A2 [1]) | half-life at 5 μM (CYP1A2 [1]) [min] | IC50 at 120 min (CYP3A4 [2]) [µM] | speed constant k in CYP3A4 (CYP3A4 [3]) | half-life at 5 μM (CYP3A4 [3]) [min] | half-life at 5 μM (CYP2C19 [4]) [min] | Km at 15 min (in vitro [5]; Sprague-Dawley, rat, pH 7.4) [µM] | Km at 15 min (in vitro [5]; human) [µM] | CLint (in vitro [5]; human) | CLint (in vitro [5]; rat) | half-life at 5 μM (CYP2E1 [6]) [min] | IC50 (CYP1A2 [7]) [µM] | half-life (in vitro [8]) [min] | speed constant k in CYP2E1 (CYP2E1 [9]) | IC50 (CYP2C19 [10]) [µM] | IC50 (CYP2E1 [11]) [µM] | speed constant k in CYP2C19 (CYP2C19 [12]) | metabolic rate of phenacetin with increasing dose of compound (CYP1A2 [14]) | metabolic rate of midazolam with increasing dose of compound (CYP3A4 [15]) | half-life (in vitro [16]) [min] | other results
COc1cc(/C=C/C(=O)CC(=O)/C=C/c2ccc(O)c(OC)c2)ccc1O [curcumin] | 0.0023 ± 0.0006 | 301 | 24.3 | 0.018 ± 0.0035 | 38.5 | 63 | 48.5 ± 8.27 | 16.6 ± 4.3 | 0.2435 mL/min/(mg of Protein) | 0.3226 mL/min/(mg of Protein) | 69.3 | > 80 | 22.4 | 0.01 ± 0.0024 | 11.9 | > 80 | 0.011 ± 0.0017 | decreased | decreased | 173 | protein level of CYP2C19 vs control in vivo (CYP2C19 [13]): decreased
CC(C)=C1C/C=C(\C)CC/C=C(\C)CC1=O [germacrone] | 0.008 ± 0.001 | 86.6 | 3.57 | 0.019 ± 0.0064 | 36.5 | 57.8 | 49.6 ± 11.1 | 44.8 ± 5.47 | 0.3298 mL/min/(mg of Protein) | 0.2763 mL/min/(mg of Protein) | 69.3 | 78.1 | 18 | 0.01 ± 0.0017 | 17.8 | > 80 | 0.012 ± 0.0032 | increased | increased | 16.4 | –
